In article PMC9270327 (Communications Biology, 2022):
pIC50, pKi: −log10 of the molar value. Values joined by “and” are separate entries in the source; they are usually repeats but may differ in a detail not shown here. Identical values can stand only once. Like-named read-outs stand apart in the source and are kept apart here.

Experiments:
[1] = test system: lentiviral pseudoparticles carrying SARS-CoV-2 Delta (B.1.617.2) spike, Caco-2 cells; type: cell-based; details: for SARS-CoV-2 spike driven entry, Mean (0 nM = 100): Fig. 5d
[2] = test system: lentiviral pseudoparticles carrying SARS-CoV-2 Alpha (B.1.1.7) spike, Caco-2 cells; type: cell-based; details: for SARS-CoV-2 spike driven entry, Mean (0 nM = 100): Fig. 5b
[3] = molecular target: TMPRSS2 (Homo sapiens, UniProt O15393); type: biochemical; set-up: purchased Creative BioMart (New York, USA) or LSBio (Seattle, USA); details: for TMPRSS2 activity, Mean (Fig. 2a): normalized, 0 nM = 100
TMPRSS2, sequence (O15393 whole entry): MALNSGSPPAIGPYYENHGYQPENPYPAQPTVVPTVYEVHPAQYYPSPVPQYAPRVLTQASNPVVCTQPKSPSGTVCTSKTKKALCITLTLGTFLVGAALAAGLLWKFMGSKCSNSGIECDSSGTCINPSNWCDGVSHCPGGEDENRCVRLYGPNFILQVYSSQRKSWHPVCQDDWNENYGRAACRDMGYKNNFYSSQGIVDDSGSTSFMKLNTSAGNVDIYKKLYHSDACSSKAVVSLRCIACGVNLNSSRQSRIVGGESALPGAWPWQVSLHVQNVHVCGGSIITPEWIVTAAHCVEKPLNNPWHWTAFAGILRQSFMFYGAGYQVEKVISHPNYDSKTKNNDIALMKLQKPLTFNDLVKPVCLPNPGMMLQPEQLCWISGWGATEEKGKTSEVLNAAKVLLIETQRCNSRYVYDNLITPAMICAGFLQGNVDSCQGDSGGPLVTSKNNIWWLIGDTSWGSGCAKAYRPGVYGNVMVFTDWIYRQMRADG
Excerpt: (§1) Recombinant human TMPRSS2 was purchased from Creative BioMart (New York, USA) or LSBio (Seattle, USA), factor Xa was obtained from Bio-Techne GmbH (Wiesbaden, Germany). Recombinant human thrombin and matriptase protein were purchased from R&D Systems (Minneapolis, MN, USA).

[4] = test system: lentiviral pseudoparticles carrying SARS-CoV-2 Omicron BA.1 (B.1.1.529) spike, Caco-2 cells; type: cell-based
[5] = test system: SARS-CoV-2 Alpha (B.1.1.7), Caco-2 cells; type: cell-based; details: for SARS-CoV-2 infection, Mean (0 nM = 100): Fig. 6c, VOC Alpha
[6] = molecular target: T1, TMPRSS2 expressed in HEK293T cells (Homo sapiens, UniProt O15393); assay: Inhibition of cellular TMPRSS2 activity on HEK293T cells transiently expressing TMPRSS2; type: cell-based; details: 2 h; for normalized fluorescence intensity, HEK293T TMPRSS2, Mean (Fig. 4b): corrected for mock-transfected cells
T1 construct: host or cells: HEK293T (ATCC)
T1 sequence (O15393 whole entry): as above
Method: In total, 10,000 Caco-2 cells (ATCC) in 100 µL EMEM medium supplemented with 10% FBS, 100 U/mL penicillin, […] streptomycin, and 2 mM glutamine (all Invitrogen, Germany) were seeded per well in a 96-well plate and incubated at 37 °C for 4 days until full confluency of the cells. The cells were washed two times with PBS and EMEM medium without FBS was added. […] The fluorescence intensity was measured as described above. In all, 20,000 HEK293T cells (ATCC) were seeded in 100 µL DMEM supplemented with 10% FBS, 100 U/mL penicillin, […] streptomycin, and 2 mM glutamine. […] […] […] Fluorescence intensity was measured after 2 h at 37 °C as described above.

[7] = test system: SARS-CoV-2 Beta (B.1.351), Caco-2 cells; type: cell-based; details: for SARS-CoV-2 infection, Mean (0 nM = 100): Fig. 6d, VOC Beta
[8] = molecular target: T2, recombinant human thrombin (Homo sapiens, UniProt P00734); assay: Enzyme inhibition assay with purified thrombin (Ki, dose-response); type: biochemical; details: normalized, 0 nM = 100
T2 construct: purchased R&D Systems (Minneapolis, MN, USA)
Excerpt: as §1

ace-Arg-Pro-Arg-kbt [Compound 2]
pIC50 ([1]; Caco-2 cells, luciferase 2 days post transduction, read-out: IC50 pseudotyped lentivirus Delta): 6.20
SARS-CoV-2 spike driven entry, Mean (0 nM = 100) ([1]; compound 3.2 nM): 94.6384
SARS-CoV-2 spike driven entry, Mean (0 nM = 100) ([1]; compound 16 nM): 93.9983
SARS-CoV-2 spike driven entry, Mean (0 nM = 100) ([1]; compound 80 nM): 82.6624
SARS-CoV-2 spike driven entry, Mean (0 nM = 100) ([1]; compound 400 nM): 60.9224
SARS-CoV-2 spike driven entry, Mean (0 nM = 100) ([1]; compound 2000 nM): 29.6704
SARS-CoV-2 spike driven entry, Mean (0 nM = 100) ([1]; compound 10000 nM): 4.245
SARS-CoV-2 spike driven entry, Mean (0 nM = 100) ([1]; compound 50000 nM): 0.86
pIC50 ([2]; Caco-2 cells, luciferase 2 days post transduction, read-out: IC50 pseudotyped lentivirus Alpha): 6.41
SARS-CoV-2 spike driven entry, Mean (0 nM = 100) ([2]; compound 3.2 nM): 80.3695
SARS-CoV-2 spike driven entry, Mean (0 nM = 100) ([2]; compound 16 nM): 86.8245
SARS-CoV-2 spike driven entry, Mean (0 nM = 100) ([2]; compound 80 nM): 66.7955
SARS-CoV-2 spike driven entry, Mean (0 nM = 100) ([2]; compound 400 nM): 63.0945
SARS-CoV-2 spike driven entry, Mean (0 nM = 100) ([2]; compound 2000 nM): 24.7885
SARS-CoV-2 spike driven entry, Mean (0 nM = 100) ([2]; compound 10000 nM): 4.5995
SARS-CoV-2 spike driven entry, Mean (0 nM = 100) ([2]; compound 50000 nM): 0.953
TMPRSS2 activity, Mean (Fig. 2a) ([3]; 0.05 nM): 92
TMPRSS2 activity, Mean (Fig. 2a) ([3]; 0.5 nM): 90.3158
TMPRSS2 activity, Mean (Fig. 2a) ([3]; 5 nM): 62.9474
TMPRSS2 activity, Mean (Fig. 2a) ([3]; 50 nM): 19.7895
TMPRSS2 activity, Mean (Fig. 2a) ([3]; 500 nM): 3.789
TMPRSS2 activity, Mean (Fig. 2a) ([3]; 5000 nM): 0.6316
TMPRSS2 activity, Mean (Fig. 2a) ([3]; 50000 nM): 0.4211
TMPRSS2 activity, Mean (Fig. 2a) ([3]; 500000 nM): -1.895
pKi ([3]; 30 min preincubation, substrate Boc-Gln-Ala-Arg-AMC, Ki from IC50 by Cheng–Prusoff): 8.42
fold more active than FOY-251 against isolated TMPRSS2 ([3]; ratio of Ki values): 2–3 fold
SARS-CoV-2 spike driven entry, Mean (0 nM = 100) [4]: 80.0549 and 94.4227 and 98.8201
pIC50 ([4]; Caco-2 cells, luciferase 2 days post transduction, read-out: IC50 pseudotyped lentivirus Omicron BA.1): 6.37
SARS-CoV-2 spike driven entry, Mean (0 nM = 100) ([4]; Fig. 5e, compound 400 nM, […]): 52.4269
SARS-CoV-2 spike driven entry, Mean (0 nM = 100) ([4]; Fig. 5e, compound 2000 nM, […]): 20.742
SARS-CoV-2 spike driven entry, Mean (0 nM = 100) ([4]; Fig. 5e, compound 10000 nM, […]): 5.628
SARS-CoV-2 spike driven entry, Mean (0 nM = 100) ([4]; Fig. 5e, compound 50000 nM, […]): 3.26
SARS-CoV-2 infection, Mean (0 nM = 100) ([5]; compound 32 nM): 106.285
SARS-CoV-2 infection, Mean (0 nM = 100) ([5]; compound 160 nM): 107.747
SARS-CoV-2 infection, Mean (0 nM = 100) ([5]; compound 800 nM): 109.671
SARS-CoV-2 infection, Mean (0 nM = 100) ([5]; compound 4000 nM): 112.829
SARS-CoV-2 infection, Mean (0 nM = 100) ([5]; compound 20000 nM): 1.3092
SARS-CoV-2 infection, Mean (0 nM = 100) ([5]; compound 100000 nM): -2.734
pIC50 ([5]; read-out: IC50 SARS-CoV-2 Alpha): ~4.70
normalized fluorescence intensity, HEK293T TMPRSS2, Mean (Fig. 4b) ([6]; 0.5 nM): 60.175
normalized fluorescence intensity, HEK293T TMPRSS2, Mean (Fig. 4b) ([6]; 5 nM): 47.265
normalized fluorescence intensity, HEK293T TMPRSS2, Mean (Fig. 4b) ([6]; 50 nM): 34.28
normalized fluorescence intensity, HEK293T TMPRSS2, Mean (Fig. 4b) ([6]; 500 nM): 7.97
normalized fluorescence intensity, HEK293T TMPRSS2, Mean (Fig. 4b) ([6]; 5000 nM): 0.76
normalized fluorescence intensity, HEK293T TMPRSS2, Mean (Fig. 4b) ([6]; 50000 nM): -5.7
pIC50 ([6]; corrected for mock-transfected HEK293T cells): 8.46
SARS-CoV-2 infection, Mean (0 nM = 100) ([7]; compound 32 nM): 90.9628
SARS-CoV-2 infection, Mean (0 nM = 100) ([7]; compound 160 nM): 88.9778
SARS-CoV-2 infection, Mean (0 nM = 100) ([7]; compound 800 nM): 79.0008
SARS-CoV-2 infection, Mean (0 nM = 100) ([7]; compound 4000 nM): 83.4908
SARS-CoV-2 infection, Mean (0 nM = 100) ([7]; compound 20000 nM): 3.338
SARS-CoV-2 infection, Mean (0 nM = 100) ([7]; compound 100000 nM): -2.162
pIC50 ([7]; read-out: IC50 SARS-CoV-2 Beta): 5.16
thrombin activity, Mean (Fig. 2c) ([8]; 0.02 nM): 98.5684
thrombin activity, Mean (Fig. 2c) ([8]; 0.04 nM): 95.6033
thrombin activity, Mean (Fig. 2c) ([8]; 0.2 nM): 102.761
